According to PMC9016807, “Metabolic, Pharmacokinetic, and Activity Profile of the Liver Stage Antimalarial (RC-12)” (ACS Omega, 2022):
Several values for one entry are separate records, joined by “and”; a condition that tells them apart may be missing. Equal values may be shown once. Read-outs that look alike come from different tables or passages of the source.

How the values were obtained:
[1] = Metabolism in rat liver microsomes; type: in vitro ADME; conditions: 1 μM substrate, NADPH
Method: (§1) Following the protocols described by Charman et al.,[28]1 was incubated at 37 °C with human, rat, and rhesus monkey liver microsomes. For the determination of intrinsic clearance, the substrate concentration was 1 μM and the protein concentration was 0.4 mg/mL; for qualitative metabolite identification studies, the substrate and protein concentrations were 10 μM and 1 mg/mL, respectively. The reaction was initiated by the addition of an NADPH-regenerating buffer system, and the samples were incubated for up to 60 (for Clint determination) or 180 min (for additional metabolite identification). Samples without the test compound and without NADPH were also incubated and used as controls. The reaction was quenched by protein precipitation with the addition of an equal volume of ice-cold acetonitrile solution (containing diazepam as an internal standard), followed by vortexing and centrifugation for 3 min at 10000 rpm. The supernatant was removed and analyzed by LC/MS. LC/MS analysis was conducted using a Waters Micromass Xevo G2 QTOF MS coupled to a Waters Acquity UPLC. For metabolite identification, a Supelco Ascentis Express Amide column (50 × 2.1 mm, 2.7 μm) was used with an acetonitrile–water gradient (containing 0.05% formic acid), a flow rate of 0.4 mL/min, a gradient cycle time of 6 min, and an injection volume of 5 μL. MS analysis was conducted using positive mode electrospray ionization under MSE acquisition mode, which allows simultaneous acquisition of MS spectra at low and high collision energies. The identity of putative metabolites was confirmed by the accurate mass and a comparison of the retention times and MS/MS fragmentation patterns with authentic metabolites where available. For metabolite quantitation, the method described below for the analysis of plasma samples was used.

[2] = system: P. cynomolgi hypnozoites; design: method as in PMID 4091527; conditions: cited from earlier work
[3] = Pharmacokinetics in rats after IV and PO administration; type: in vivo, male Sprague–Dawley rats
Method: Animal studies were conducted using established procedures in accordance with the Australian Code of Practice for the Care and Use of Animals for Scientific Purposes, and the study protocols were reviewed and approved by the Monash Institute of Pharmaceutical Sciences Animal Ethics Committee. The study was conducted in overnight-fasted male Sprague–Dawley rats weighing 266–292 g. Rats had access to water ad libitum throughout the pre- and postdose sampling period, and access to food was reinstated 4 h postdose. Compound 1 was administered intravenously as a 10 min constant rate infusion via an indwelling jugular vein cannula (1 mL per rat, n = 5 rats) and orally by gavage (10 mL/kg per rat, n = 2–3 rats), and samples of arterial blood and total urine were collected up to 24 h postdose. Arterial blood was collected directly into borosilicate vials (at 4 °C) containing heparin. Blood samples were centrifuged, and the supernatant plasma was removed and stored frozen (−80 °C) until analysis by LC-MS. Plasma samples and calibration standards (prepared in blank rat plasma) were processed by protein precipitation with a 2-fold volume of acetonitrile. LC-MS analysis was conducted using a Waters Micromass Quattro Premier triple-quadrupole mass spectrometer coupled to a Waters Acquity UPLC with a Phenomenex C18 Kinetex column (50 × 2.1 mm, 2.7 μm). Elution was achieved using a methanol–water gradient (containing 8.2 mM formic acid and 1.25 mM ammonium formate) with a flow rate of 0.6 mL/min, a gradient cycle time of 6 min, and an injection volume of 2 μL. MS detection was conducted using positive electrospray ionization with multiple reaction monitoring. Transitions (m/z), cone voltages (V), and CID voltages (V) were as follows: 1, 430.26 > 99.93, 40, 20; 2, 416.27 > 99.80, 30, 20; 3, 402.22 > 99.93, 35, 20; 4, 388.23 > 99.86, 35, 20; 5: 374.25 > 72.01, 35, 25; diazepam (285.25 > […], 40, 25) (used as an internal standard). The quantitation range in plasma was typically 1–10000 ng/mL, and the accuracy and precision were within ±10% and <10%, respectively, for each analyte. Urine samples were analyzed using either a 20- or 200-fold dilution with 50% acetonitrile and assayed against calibration standards prepared in the same solvent.

[4] = system: P. vivax; design: method as in doi:10.1016/0035-9203(74)90194-1; conditions: 7-day course at 10 mg/(kg day); cited from earlier work
[5] = system: P. falciparum (NF54 clone); test: Blood stage activity against cultured P. falciparum; type: cell-based, Plasmodium falciparum; conditions: concentration up to 15 μM
[6] = Metabolism in rhesus monkey liver microsomes; type: in vitro ADME; conditions: rhesus monkey, liver microsomes; 1 μM substrate, 0.4 mg/mL microsomal protein, NADPH, 37 °C, 60 min; average of three replicates; read-out: CLint
Method: as §1

[7] = PO, 11 mg/kg, individual values n = 2
[8] = male, Sprague-Dawley, rat, plasma, po, 27 mg/kg

In the case of `CCN(CC)CCN(CCN(CC)CC)c1cc(OC)c(OC)cc1Br` [Compound 1, 4-(2-bromo-4,5-dimethoxyphenyl)-1,1,7,7-tetraethyldiethylenetriamine], the “average substrate depletion over a 60 min incubation” value ([1]; 0.4 mg/mL protein, relative to initial substrate concentration) is listed as roughly 90%, the microsomal CLint at 1 μM ([1]; rat, liver microsomes, 0.4 mg/mL microsomal protein, 37 °C, 60 min, average of three replicates, read-out: CLint) is listed as 100 ± 2.6 µL/min/mg and the “efficacy against hypnozoites relative to primaquine” value [2] is listed as “about 1 order of magnitude less effective than primaquine”. The hemolysis [2] was “produced no hemolysis”, the “toxicity relative to primaquine” value [2] was 1 order of magnitude less toxic and the “dose excreted in urine as parent” value ([3]; IV, 3 mg/kg, individual values) was 9.2% and 10.7%. For the same compound, the Cmax [3, 7] was 50 nM, the Tmax [3, 7] was 0.8 h and the plasma half-life [3, 7] was 6.1 h. It also gave a half-life ([3]; male, Sprague-Dawley, rat, plasma, intravenous and oral, after IV and PO administration, read-out: terminal half-life) of 5 to 7 h, a clearance ([3]; male, Sprague-Dawley, rat, plasma, iv, 3 mg/kg) of 147 ± 33 mL/min/kg and a half-life ([3]; male, Sprague-Dawley, rat, plasma, iv, 3 mg/kg, IV, 3 mg/kg, n = 5, read-out: plasma half-life (converted)) of 7 ± 1.3 h. The Vd ([3]; male, Sprague-Dawley, rat, plasma, iv, 3 mg/kg, read-out: plasma volume of distribution) was 51 ± 10 L/kg, the bioavailability ([3]; male, Sprague-Dawley, rat, plasma, po, 11 mg/kg) was roughly 16% and the Tmax ([3]; male, Sprague-Dawley, rat, plasma, po, 11 mg/kg, PO, 11 mg/kg, individual values n = 2, read-out: Tmax) was 1 h. For the same compound, the half-life ([3]; male, Sprague-Dawley, rat, plasma, po, 11 mg/kg, PO, 11 mg/kg, individual values n = 2, read-out: plasma half-life (converted)) was 4.9 h, the Cmax ([3]; male, Sprague-Dawley, rat, plasma, po, 11 mg/kg, individual values n = 2) was 70 nM and the Cmax [3, 8] was 310 ± 30 nM. For the same compound, the bioavailability [3, 8] was roughly 27%, the half-life ([3]; male, Sprague-Dawley, rat, plasma, po, 27 mg/kg, PO, 27 mg/kg, n = 3, read-out: plasma half-life (converted)) was 7.4 ± 1.3 h and the Tmax ([3]; male, Sprague-Dawley, rat, plasma, po, 27 mg/kg, PO, 27 mg/kg, read-out: Tmax) was 1 h. For the same compound, the Tmax ([3]; male, Sprague-Dawley, rat, plasma, po, oral administration, read-out: time of maximum plasma concentrations postdose) was roughly 1 h, the blood plasma ratio ([3]; male, Sprague-Dawley, whole blood and plasma, 3 mg/kg, rat, IV column) was 2.1 and the “renal elimination as share of overall in vivo clearance” value ([3]; rat) was “approximately 10%”. For the same compound, the “prevention of infections / inhibition of relapses of P. vivax” value [4] was “did not prevent infections or inhibit relapses”, the tolerability [4] was “well-tolerated” and the blood stage activity [5] was “no blood stage activity”. The microsomal CLint at 1 μM [6] was 23 ± 4.7 µL/min/mg.
